In paper PMC5848165 (Toxins, 2018):
Residues, ends and D or L forms follow the SMILES beside them.

Assays:
hNav1.7 = molecular target: T1, hNav1.7 (Homo sapiens, UniProt Q15858); experiment: Whole-cell patch clamp, WT Nav1.7 in HEK293 cells; type: cell-based
T1 construct: expressed in transfected cells; host or cells: HEK293 (HEK293T) cells, transient
Excerpt: (§1) Nine sodium channel subtypes have been identified and classified as TTX-S (Nav1.1–Nav1.4, Nav1.6, and Nav1.7) or TTX-R types (Nav1.5, Nav1.8, and Nav1.9). […] However, the subtype selectivity of JZTX-34 on the subtype of sodium channel is still unknown. In this work, effects of JZTX-34 on VGSC subtypes (Nav1.1–Nav1.8) were examined. Nav1.1–Nav1.7 were transfected into HEK293 cells and Nav1.8 currents were expressed in ND cells. Inward sodium currents were elicited by a 50 ms depolarizing potential to −10 mV from a holding potential of −80 mV every 5 s. […] No effects on other sodium channel subtypes were found (Nav1.1, Nav1.2, Nav1.4–Nav1.6, and Nav1.8) (Figure S2).
Figure 2 Selectivity of JZTX-34 on sodium channel subtypes. All inward sodium channels were elicited by a 50 ms depolarizing potential to −10 mV from a holding potential of −80 mV every 5 s. One μM JZTX-34 was added to rNav1.3. (A) hNav1.7. (B,C) Dose-dependent inhibition of JZTX-34 on rNav1, rNav3, and hNav1.7 (n = 5). […]
(§2) The HEK293T cells were maintained in standard culture conditions (5% CO2 and 37 °C). […] After culturing for 36–72 h, cells with obvious green fluorescence were selected for sodium currents recordings the internal solution for sodium currents recording that contained (in mM) 140 CsF, 5 NaCl, 10 HEPES, 3 Na2-ATP, and 10 EGTA. […]
(§3) Sodium currents were recorded from DRG, HEK293, and ND cells by the whole-cell patch-clamp technique at 25 °C. […] Experiments date were acquired from whole-cell Axon 700B patch clamp amplifier (Molecular Devices, Sunnyvale, CA, USA) and analyzed by the program Clampfit10.0 (Molecular Devices, Sunnyvale, CA, USA) and Sigmaplot. […]
Data from Axon 700B patch clamp were analyzed by Clampfit10.0 (Molecular Devices, Sunnyvale, CA, USA). […] The G-V curves were obtained by calculating the conductance (G) at each voltage (V) using the equation G = I/(V1 − Vrev), with Vrev being the reversal potential determined for each cell individually. […] All the results from patch clamp and animal models are expressed as means ± standard error of the mean (SEM). […]

Nav1.4 = experiment: Whole-cell patch clamp, Nav1.4 in HEK293 cells; type: cell-based, rat; settings: 1 µM, −10 mV from −80 mV
Excerpt: as §1, with “S2). […]” for “S2).”
as §2, §3

[1] = tested on: chimera #1, Nav1.5 (Nav1.7-DII-S3-S4); experiment: Whole-cell patch clamp, chimera #1 in HEK293 cells; type: cell-based, rat Nav1.5 / human Nav1.7; settings: −10 mV from −80 mV
Excerpt: Many animal toxins alter activation or inactivation of sodium channels by binding to the S3–S4 regions of channels, which are probably the external linkers or voltage sensors of sodium channels. α-Scorpion toxins slow down fast-inactivation of sodium channels by binding to the extracellular linker loop of DIVS3-S4 (neurotoxin site 3). Meanwhile, β-scorpion toxins that interact with DIIS3-S4 linker enhance the activation of sodium channels by trapping DII voltage sensor in an activated state. As Nav1.5 channel is resistant to the inhibition of JZTX-34, we investigated the binding site of JZTX-34 to Nav1.7 by constructing chimeric channels between Nav1.5 and Nav1.7. […]
as §2, §3

T1 sequence (Q07699 19-218): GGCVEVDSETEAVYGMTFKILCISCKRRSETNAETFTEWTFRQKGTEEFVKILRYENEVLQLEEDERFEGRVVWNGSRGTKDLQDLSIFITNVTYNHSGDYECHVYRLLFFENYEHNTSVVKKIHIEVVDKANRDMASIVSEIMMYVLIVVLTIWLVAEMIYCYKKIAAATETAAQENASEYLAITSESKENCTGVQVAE
T1 sequence (Q15858 other isoform, or with tags, fused parts or gaps): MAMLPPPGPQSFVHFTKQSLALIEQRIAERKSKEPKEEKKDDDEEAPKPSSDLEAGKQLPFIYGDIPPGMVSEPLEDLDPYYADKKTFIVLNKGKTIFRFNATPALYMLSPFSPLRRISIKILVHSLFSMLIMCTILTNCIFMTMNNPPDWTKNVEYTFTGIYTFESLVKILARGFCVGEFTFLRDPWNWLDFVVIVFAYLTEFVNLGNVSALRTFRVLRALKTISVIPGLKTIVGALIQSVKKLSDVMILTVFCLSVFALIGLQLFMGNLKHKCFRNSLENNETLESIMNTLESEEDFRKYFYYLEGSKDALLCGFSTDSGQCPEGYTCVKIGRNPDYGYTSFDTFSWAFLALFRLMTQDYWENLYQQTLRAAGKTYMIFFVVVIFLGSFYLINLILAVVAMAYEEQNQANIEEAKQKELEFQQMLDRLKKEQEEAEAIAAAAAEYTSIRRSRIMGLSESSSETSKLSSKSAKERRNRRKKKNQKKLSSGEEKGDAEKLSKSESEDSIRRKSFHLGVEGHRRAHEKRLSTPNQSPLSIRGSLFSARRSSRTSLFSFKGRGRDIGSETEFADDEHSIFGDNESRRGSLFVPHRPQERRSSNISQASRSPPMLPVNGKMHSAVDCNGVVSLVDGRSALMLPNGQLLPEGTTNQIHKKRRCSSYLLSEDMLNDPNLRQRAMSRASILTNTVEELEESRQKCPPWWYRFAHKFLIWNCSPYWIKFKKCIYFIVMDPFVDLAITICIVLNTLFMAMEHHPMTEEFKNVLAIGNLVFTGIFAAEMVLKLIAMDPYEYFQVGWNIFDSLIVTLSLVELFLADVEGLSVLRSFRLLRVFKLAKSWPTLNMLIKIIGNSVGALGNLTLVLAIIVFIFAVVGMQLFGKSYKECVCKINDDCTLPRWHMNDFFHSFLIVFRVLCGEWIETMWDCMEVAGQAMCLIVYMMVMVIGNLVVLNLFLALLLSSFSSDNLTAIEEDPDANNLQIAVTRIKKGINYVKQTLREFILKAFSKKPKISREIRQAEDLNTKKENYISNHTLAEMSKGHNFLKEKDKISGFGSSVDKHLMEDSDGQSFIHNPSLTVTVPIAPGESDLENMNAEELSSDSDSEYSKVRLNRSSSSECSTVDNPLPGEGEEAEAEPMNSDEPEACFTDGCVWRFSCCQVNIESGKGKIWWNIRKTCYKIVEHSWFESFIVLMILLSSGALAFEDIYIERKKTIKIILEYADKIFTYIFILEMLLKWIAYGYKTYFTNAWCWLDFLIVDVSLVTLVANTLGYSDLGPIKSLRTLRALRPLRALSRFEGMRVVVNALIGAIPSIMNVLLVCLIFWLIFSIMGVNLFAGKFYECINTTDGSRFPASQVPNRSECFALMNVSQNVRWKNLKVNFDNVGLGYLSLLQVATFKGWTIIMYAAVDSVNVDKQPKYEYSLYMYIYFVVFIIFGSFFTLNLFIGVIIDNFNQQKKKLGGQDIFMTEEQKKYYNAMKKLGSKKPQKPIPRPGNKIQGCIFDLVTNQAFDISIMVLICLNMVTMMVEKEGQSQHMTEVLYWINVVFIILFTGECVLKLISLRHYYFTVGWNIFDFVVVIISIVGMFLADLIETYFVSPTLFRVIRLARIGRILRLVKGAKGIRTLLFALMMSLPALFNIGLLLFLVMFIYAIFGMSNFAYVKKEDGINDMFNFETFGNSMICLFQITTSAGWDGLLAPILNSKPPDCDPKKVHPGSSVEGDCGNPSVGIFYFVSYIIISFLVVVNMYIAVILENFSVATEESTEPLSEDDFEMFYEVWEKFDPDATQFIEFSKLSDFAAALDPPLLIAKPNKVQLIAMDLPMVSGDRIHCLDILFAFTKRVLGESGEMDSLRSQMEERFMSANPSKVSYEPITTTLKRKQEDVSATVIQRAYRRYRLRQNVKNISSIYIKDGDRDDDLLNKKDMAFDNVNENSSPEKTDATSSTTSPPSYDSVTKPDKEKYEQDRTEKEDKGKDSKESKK

With `CC(C)C[C@@H]1NC(=O)[C@H](Cc2c[nH]c3ccccc23)NC(=O)[C@H](CCC(=O)O)NC(=O)[C@H](CCCNC(=N)N)NC(=O)[C@@H](NC(=O)[C@H](C)N)CSSC[C@@H]2NC(=O)[C@@H]3CSSC[C@@H](C(=O)N[C@H](C(=O)N[C@@H](Cc4c[nH]c5ccccc45)C(=O)N[C@@H](CC(=O)O)C(=O)N[C@@H](Cc4c[nH]c5ccccc45)C(=O)N[C@H](C(=O)N[C@H](C(=O)O)C(C)C)[C@@H](C)O)C(C)C)NC(=O)[C@H](Cc4c[nH]cn4)NC(=O)[C@H](Cc4ccc(O)cc4)NC(=O)[C@@H]4CCCN4C(=O)[C@H](Cc4c[nH]c5ccccc45)NC(=O)[C@H](CCCCN)NC(=O)[C@H](CCCCN)NC(=O)[C@H](CCCNC(=N)N)NC(=O)[C@H](CSSC[C@H](NC(=O)CNC(=O)CNC1=O)C(=O)N[C@@H](CO)C(=O)N[C@@H](CCCCN)C(=O)N[C@@H](CC(=O)O)C(=O)N[C@@H](C)C(=O)N[C@@H](CC(=O)O)C(=O)N3)NC(=O)[C@H](CCC(=O)O)NC(=O)[C@H](CC(C)C)NC(=O)[C@H](Cc1c[nH]cn1)NC(=O)[C@H](C)NC2=O` [JZTX-34, Jingzhaotoxin-34] (HELM PEPTIDE1{A.C.R.E.W.L.G.G.C.S.K.D.A.D.C.C.A.H.L.E.C.R.K.K.W.P.Y.H.C.V.W.D.W.T.V}$PEPTIDE1,PEPTIDE1,2:R3-16:R3|PEPTIDE1,PEPTIDE1,9:R3-21:R3|PEPTIDE1,PEPTIDE1,15:R3-29:R3$$$V2.0; N-terminus and C-terminus assumed) the inhibition at 1 µM (hNav1.7; 1 µM, mutant comparison experiment (Figure 4), read-out: inhibition of WT Nav1.7 currents) was 54.3 ± 5.2%, the “reduction of Nav1.7 currents” value (hNav1.7; 1 µM, −10 mV from −80 mV holding, mean ± S.E., subtype selectivity experiment (Figure 2)) was 54.6 ± 5.3% and the IC50 (hNav1.7; −10 mV from −80 mV holding, Hill fit, n = 5) was 610 nM. The “effect on Nav1.4 currents” value (Nav1.4) was “No effects”, the “inhibition of chimera #1 currents” value ([1]; 1 µM) was 47.6 ± 3.6% and the “inhibition of chimera #1 currents” value ([1]; 10 µM) was 79.5 ± 2.8%.
